What all share (assay type): in vivo
The subject of one test is BALB/C mice. In words: Open Field test in mice. Conditions: Diazepam 0.75 mg/kg. Here is the method:
After an adaptation period, the test substance was intraperitoneally injected into mice. Behavioral parameters were measured in 30 minutes after injection. The tests were administered as follows: day 1—the Open field test, day 3—the Elevated plus maze test, day 5—the Marble burying test, days 12-13—the Porsolt swim (two-day modification) test.
In the Open field test, the installation is an arena with a diameter of 63 cm, illuminated by bright light (500 lux) (OpenScience, Russia). The following parameters were measured during 5-minute experiment: a total distance (cm), a time of motion (if the speed is more than 5 cm/s), an immobility (if the speed is less than 0.2 cm/sec), a mean and maximum velocity, and a number of episodes of motor activity and “freezing”. The same set of parameters, as well as latent period and time duration of stay, were recorded for the central sector of the arena. Defecations and rearing (animal raise upright on hind limbs) were assessed visually (File and Wardill (1975) Validity of head-dipping as a measure of exploration in a modified hole-board. Psychopharmacol., 44, 53-59). The test is designed to measure the level of motor and exploratory activity.
All substances were injected intraperitoneally in a volume of 10 μl of solution per 1 gram of animal weight 30 minutes prior to behavioral testing.

The subject of a further test is Sprague Dawley rats. In words: Elevated Plus Maze in rats, intranasal FQSE. The settings on record: FQSE 0.5 mg/kg i.n.; diazepam 2 mg/kg IP. On the procedure: The five doses of FQSE (SEQ ID NO:10) (0.01, 0.1, 0.5, 1 and 3 mg/kg, CS, Menlo Park, CA) were prepared fresh for each test day in sterile saline and administered intranasally (i.n.) 30 minutes prior to testing. Fifteen rats per group per peptide dose were tested with the exception that there were twenty rats in the vehicle (0) group. Each dose was administered in a randomized order across rats. Prior to dosing, the rats were lightly anesthetized (till loss of righting reflex) with isoflurane (2.5%, 0.5 L/min oxygen), placed in the recumbent position, then a thin plastic pipette (Fischer Scientific) inserted into the nares and peptide administered at a volume of 15-20 uL per nares. Individuals performing the behavioral tests were blind to drug treatment.
Rats were first allowed to acclimate to the testing room for 30 minutes while in their home cage. During testing, a rat was placed on the maze which consists of two open arms (45-cm long×10-cm wide), two closed arms (45-cm long×10-cm wide×30-cm high), and a middle compartment (4-cm long×4-cm wide) forming the shape of a plus located 50-cm above the floor, for 5-min. The test session was digitally recorded for later analyses (Ethovision, XT12). All testing was conducted under red lighting. An experimenter observed the rat during testing through a specialized observation window built into the door of the behavioral testing room. […]

Another test concerns zebrafish (Danio rerio). Nature of the test: Shoaling behavior test in zebrafish. The settings on record: ip, DKTE 1 mg/kg, vs control. On the procedure: The tested substances were injected into the zebrafish intraperitoneally (ip) using an insulin syringe (0.5 ml, 30 g) 10 minutes before the test. The saline solution (0.9% NaCl) was used as a solvent. Anesthesia and immobilization of the animals were achieved by placing them in water at a temperature of 10° C. Control group fish received intraperitoneal injections of an equivalent volume of solvent, also after going through a pre-cooling procedure.
A Plexiglas container with a removable partition (shown in FIG. 4) was used as a setup for investigating the shoaling behavior of zebrafish. A shoal of 5 adult Danio rerio specimens was placed into in the small compartment; and the test fish was placed in a large compartment. Diffused lighting in this installation was provided by the usual lighting of the room (about 200 Lx).
The shoaling behavior test was performed as described in Parker et al., 2014. (Parker et al. (2014) The utility of zebrafish to study the mechanisms by which ethanol affects social behavior and anxiety during early brain development. Prog. Neuro-Psychopharmacology Biol. Psychiatry. 94-100). The video recording began simultaneously with placing the zebrafish in the set-up and recorded for 5 minutes. The videos were processed using RealTimer (OpenScience Ltd., Moskow, Russia). During the processing of the records, the residence time and the number of visits to the three conventional zones of the aquarium wall (near the “shoal” in the middle of the aquarium, and near the opposite side; all three were equal in size) were recorded.

Test [1] relates to Wistar rats after chronic unpredictable mild stress. Nature of the test: CUMS model: Novelty Suppressed Feeding Test. Here is the method:
During stress, the animals were placed in individual cells and exposed to stressful conditions each day for 26 days. Two stressors were used daily, applied in the following order: • Day 1. 10 am-6 pm, rats were placed in a cold room for an hour. From 6 PM to 10 am the lights were turned on and off every 2 hours. • Day 2. 10 am-6 pm, cage tilted to 45°. From 6 PM to 10 am water deprivation. • Day 3. 10 am-6 pm, stroboscopic light. From 6 PM to 10 am the light was left on overnight. • Day 4. 10 am-6 pm, wet bedding. From 6 PM to 10 am the animals were put in a small mouse cage. • Day 5. 10 am-6 pm, no bedding. From 6 PM to 10 am the lights were turned on and off every 2 hours. • Day 6. 10 am-6 pm, a new rat was placed in the cage (6-month-old). From 6 PM to 10 am the light was left on overnight. • Day 7. 10 am-6 pm, white noise. From 6 PM to 10 am a stroboscopic light was turned on at night. • Day 8-26. Repetition of previously used stressors in the specified sequence.
Experimental substances were administered daily starting from the 58-59 day of the experiment. The administration took place 30 minutes before the start of behavioral testing. On days when there were no tests, the substances were administered in the morning.
To assess anxiety and food motivation, a test for eating behavior in a new environment was used. […] The time to start eating and the duration of consumption were recorded. […]

For `CN1C(=O)CN=C(c2ccccc2)c2cc(Cl)ccc21` [Diazepam], the total distance in the test on BALB/C mice (ip 30 min before, FQSE 1 mg/kg) is given as 2542.2±179.77 cm. Moreover, the “time the animals spent in the center” value in the test on BALB/C mice (ip) is “not significantly different”. Also, in the test with BALB/C mice (ip, FQSE 1 mg/kg), the “number of center entries” value was “not significantly different” and the number of rearings stood at 10.8±2.1. For the same compound, in the test on Sprague Dawley rats, the “percent time on the open arm” value stood at 10.8±1.11%. The “time spent in the compartment near the shoal” value with zebrafish (Danio rerio) (diazepam 1.25 mg/kg, ACZ-10 0.6 mg/kg, BCM-7 5 mg/kg) was “statistically significant decrease”. In the test with zebrafish (Danio rerio) (diazepam 5 mg/kg, FQSE 10 mg/kg), the “time spent outside the shoaling compartment (near the wall opposite to the shoal)” value is “increase”. Besides, in test [1] (CUMS, FQSE 0.5 mg/kg, Diazepam), the “result obtained in NSFT (11 administrations)” value is “anxiolytic effect”. Also, the “latency to start eating” value in test [1] (FQSE 0.5 mg/kg i.n., diazepam 0.5 mg/kg i.p., 11 days) is “significant decrease in latency”.
